This is an account of results in paper PMC6934184, “Selective DNA-PKcs inhibition extends the therapeutic index of localized radiotherapy and chemotherapy” (The Journal of Clinical Investigation, 2019).

For orientation: inhibition means the drop in the measured response relative to a control, in per cent. Read a low inhibition as a response near the control.

The assay has as its target T1, MARK2 (Homo sapiens, UniProt Q7KZI7).
T1 construct: purchased Thermo Fisher Scientific (Life Technologies) SelectScreen
Description: SelectScreen Z'LYTE. It counts as biochemical. The method, boiled down:
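SelectScreen broad panel; activity (Z'LYTE, Adapta) plus binding formats. ATP: Km app for CSF1R Z'LYTE; 10 for CAMK1 Adapta. Readout = % per kinase.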

T1 sequence (Q7KZI7 whole entry): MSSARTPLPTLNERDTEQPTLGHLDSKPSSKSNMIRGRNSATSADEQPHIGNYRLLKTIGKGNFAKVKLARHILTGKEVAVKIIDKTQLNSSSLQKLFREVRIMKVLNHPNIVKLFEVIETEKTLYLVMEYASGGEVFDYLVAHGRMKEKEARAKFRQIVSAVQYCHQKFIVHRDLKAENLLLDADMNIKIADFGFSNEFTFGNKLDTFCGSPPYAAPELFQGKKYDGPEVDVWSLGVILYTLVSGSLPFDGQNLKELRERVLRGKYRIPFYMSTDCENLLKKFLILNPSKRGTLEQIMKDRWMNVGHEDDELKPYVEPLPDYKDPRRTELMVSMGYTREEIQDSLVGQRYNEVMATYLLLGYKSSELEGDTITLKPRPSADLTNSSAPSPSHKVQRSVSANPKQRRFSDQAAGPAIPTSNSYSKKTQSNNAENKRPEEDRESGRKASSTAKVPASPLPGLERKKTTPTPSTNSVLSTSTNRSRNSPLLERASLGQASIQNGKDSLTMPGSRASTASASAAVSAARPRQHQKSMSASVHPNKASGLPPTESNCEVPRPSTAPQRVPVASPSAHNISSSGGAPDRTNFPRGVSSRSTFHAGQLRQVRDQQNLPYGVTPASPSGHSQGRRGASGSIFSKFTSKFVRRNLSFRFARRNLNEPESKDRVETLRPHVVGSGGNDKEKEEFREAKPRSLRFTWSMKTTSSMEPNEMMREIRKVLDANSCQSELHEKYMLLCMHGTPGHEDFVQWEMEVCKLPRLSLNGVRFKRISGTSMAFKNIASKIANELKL

The molecule `CN(C(=O)CN1CCOCC1)c1ccc2sc3c(-c4cccc5c(=O)cc(N6CC7CCC(C6)O7)oc45)cccc3c2c1` [NU5455] displayed an inhibition at 1 µM of 0.1%.
